B1: zinc-alpha-2-glycoprotein (ZAG) protein (protein, listed as Homo sapiens)
chain: MVRMVPVLLSLLLLLGPAVPQENQDGRYSLTYIYTGLSKHVEDVPAFQALGSLNDLQFFRYNSKDRKSQPMGLWRQVEGMEDWKQDSQLQKAREDIFMETLKDIVEYYNDSNGSHVLQGRFGCEIENNRSSGAFWKYYYDGKDYIEFNKEIPAWVPFDPAAQITKQKWEAEPVYVQRAKAYLEEECPATLRKYLKYSKNILDRQDPPSVVVTSHQAPGEKKKLKCLAYDFYPGKIDVHWTRAGEVQEPELRGDVLHNGNGTYQSWVVVAVPPQDTAPYSCHVQHSSLAQPLVVPWEAS

Tests used:
keloid fibroblasts (KFs) = assay: CCK-8 assay, cell proliferation of KFs; format: cell-based; conditions: KF, 10 μg/mL, compared to untreated negative control / other candidates
Method: (§1) A CCK-8 assay was performed to select amino acid sequences corresponding to the core active region of ZAG, which has an inhibitory effect on the formation of scars, among the 18 peptide candidates. Human dermal fibroblasts (HDFs) and keloid fibroblasts (KFs) were treated with the ZAG protein-derived peptide candidates (Z1 to Z18) and the ZAG protein (ZAG) at a concentration of 10 μg/mL, and cell proliferation was then confirmed using a CCK-8 assay. A group treated with the ZAG protein alone was used as a positive control, and an untreated group was used as a negative control.
(§2) Specifically, HDFs and KFs were treated with the ZAG protein (ZAG), Z16, and the ZAG protein-derived peptide candidates (Z15mer_1 to Z15mer_4) additionally synthesized in Preparation Example 2 at a concentration of 10 μg/mL, and cell proliferation was then confirmed through a CCK-8 assay.

[1] = system: human dermal fibroblasts (HDFs); assay: CCK-8 assay, cell proliferation of HDFs; format: cell-based; conditions: HDF, 10 μg/mL, compared to untreated negative control / other candidates
Method: as §1, §2

[2] = system: collagen I, III, TGF-β, pSMAD2/3; assay: RNA (PCR) and protein (Western blotting) expression in scratched, TGF-β-treated HDFs; format: cell-based, human; conditions: HDF, TGF-β + peptide vs TGF-β-treated group; for mRNA expression of collagen I, III, and TGF-β: PCR; for protein expression of collagen I, III, TGF-β, and pSMAD2/3: Western blotting
Method: (§3) HDFs and KFs were seeded in a 6-well plate. After 24 hours, the center of each well was scratched to create a wound. Thereafter, the HDF test group was treated with 10 ng/mL of TGF-β, which is overexpressed during scar formation, to create a scar environment, and then treated with the selected Z16 peptide. The migration of cells in the affected area was confirmed 24 hours later.
(§4) Cells were treated with Z16 under the same conditions as in Example 2-1, and the expression of RNA and proteins involved in the formation of hypertrophic scars or keloids was analyzed. The expression was confirmed through PCR and Western blotting.
as §3, with “a wound generation model.” for “a wound.”, “a scarring” for “a scar”, “with Z15mer_1 to Z15mer_4 additionally synthesized in Preparation Example 2.” for “with the selected Z16 peptide.”
(§5) Cells were treated with Z16 under the same conditions as in Example 3-1, and the expression of RNA and proteins involved in the formation of hypertrophic scars or keloids was analyzed. The expression was confirmed through PCR and Western blotting.

[3] = system: hypertrophic scars or keloids; assay: Overall inhibitory effect on formation of hypertrophic scars or keloids (HDF/KF tests); format: cell-based; conditions: compared with ZAG16, scratch assay HDF and KF
Method: as §1
as §3, with “a wound generation model.” for “a wound.”, “a scarring” for “a scar”, “with Z15mer_1 to Z15mer_4 additionally synthesized in Preparation Example 2.” for “with the selected Z16 peptide.”

[4] = system: collagen I, III, TGF-β, pSMAD2/3; assay: RNA (PCR) and protein (Western blotting) expression in scratched KFs; format: cell-based; conditions: KF, vs untreated negative control; for mRNA expression of collagen I, III, and TGF-β: PCR; for protein expression of collagen I, III, TGF-β, and pSMAD2/3: Western blotting
Method: as §3, §4
as §3, with “a wound generation model.” for “a wound.”, “a scarring” for “a scar”, “with Z15mer_1 to Z15mer_4 additionally synthesized in Preparation Example 2.” for “with the selected Z16 peptide.”
as §5

HDFs = assay: Scratch assay, cell migration of HDFs in TGF-β scar environment; format: cell-based, human; conditions: HDF scratched, 10 ng/mL TGF-β, 24 hours, compared to TGF-β-treated group
Method: as §3
as §3, with “a wound generation model.” for “a wound.”, “a scarring” for “a scar”, “with Z15mer_1 to Z15mer_4 additionally synthesized in Preparation Example 2.” for “with the selected Z16 peptide.”

KFs = assay: Scratch assay, cell migration of KFs; format: cell-based; conditions: KF scratched, general medium, 24 hours
Method: as §3
as §3, with “a wound generation model.” for “a wound.”, “a scarring” for “a scar”, “with Z15mer_1 to Z15mer_4 additionally synthesized in Preparation Example 2.” for “with the selected Z16 peptide.”

| Molecule | cell proliferation (CCK-8) (keloid fibroblasts (KFs)) | cell proliferation (CCK-8) [1] | mRNA expression of collagen I, III, and TGF-β [2] | protein expression of collagen I, III, TGF-β, and pSMAD2/3 [2] | inhibition of the formation of hypertrophic scars and keloids [3] | mRNA expression of collagen I, III, and TGF-β [4] | protein expression of collagen I, III, TGF-β, and pSMAD2/3 [4] | migration of cells in the affected area (HDFs) | migration of cells in the affected area (KFs) |
| --- | --- | --- | --- | --- | --- | --- | --- | --- | --- |
| APGEKKKLKCLAYDF (ZAG protein-derived peptide) [Peptide Z15mer_1] | lowest proliferation | lowest proliferation | decreased | decreased | more effectively than ZAG16 | decreased | decreased | greatest inhibition of cell migration | greatest inhibition of cell migration |
| APGEKKKLKCLAYDFYPGKIDVHWTRAGEV (ZAG protein-derived peptide) [Peptide Z16] | lowest cell proliferation | lowest cell proliferation | decreased | decreased | – | decreased | decreased | inhibited | inhibited |
| B1 | decreased cell proliferation | decreased cell proliferation | – | – | – | – | – | – | – |
